In patent US10188616B2, “Topical sphingosine-1-phosphate receptor agonist formulations and methods of using the same” (Teikoku Pharma USA, Inc., priority 2013, dated 2019):
Structures can show the parent of a compound that is named as a salt. Where two headings read alike, the source gives them in different places. One block for each compound: values may come before it.

Assays:
[1] = Transdermal flux test of topical patch formulations (Franz cell); assay type: in vitro ADME
From the text: Human cadaver skin was used and epidermal layers (stratum corneum and epidermis) were separated from the full-thickness skin as skin membrane. Samples were die-cut with an arch punch to a final diameter of about 2.0 cm^2. The release liner was removed and the drug delivery system was placed on top of the epidermis/stratum corneum with the drug adhesive layer facing the stratum corneum. Gentle pressure was applied to effect good contact between the adhesive layer and stratum corneum. The donor and receptor sides of the Franz cell were clamped together and the receptor solution containing 0.9% sodium chloride, 1% Tween 80 and 0.01% Gentamicin was added to the Franz cell. The cells were kept at 33° C. for the duration of the experiment. Samples of the receptor solution were taken at regular intervals and the active agent concentration was measured by HPLC. The removed receptor solution was replaced with fresh solution to maintain the sink conditions. The flux was calculated from the slope of cumulative amounts of the drug in the receiver compartment versus time plot.

[2] = orally administered fingolimod HCl; cited from earlier work
[3] = Transdermal flux test of fingolimod HCl gel and solutions (Franz cell); assay type: in vitro ADME, human; conditions: during the first 8 hours of the experiments
Protocol: Human cadaver skin was used and epidermal layers (stratum corneum and epidermis) were separated from the full-thickness skin as skin membrane and placed on top of the Franz cell. The donor compartment chamber and receptor sides of the Franz cell were clamped together. A receptor solution containing 0.9% sodium chloride was added to the cell. Solution samples or gel samples were inserted into the donor compartment chamber on top of the epidermis/stratum corneum. The cells were kept at a temperature of 33° C. during the entire experiment. Samples of the receptor solution were taken at regular intervals and the active agent concentration was measured by HPLC. The removed receptor solution was replaced with fresh solution to maintain the sink conditions. The flux was calculated from the slope of the cumulative amounts of the drug in the receiver compartment versus time.

[4] = Solubility of fingolimod in patch adhesive; assay type: physicochemical

SMILES: CCCCCCCC/C=C\CCCCCCCC(=O)OCC(O)CO (centres unmarked) [GMO, Glyceryl monooleate]
effect on the fingolimod flux ([1]; excipient in fingolimod base patches in Duro-Tak 9301, human cadaver skin, FIG. 3): enhancement effect

SMILES: CCCCCCCCCCCCOC(=O)C(C)O (centres unmarked) [LL, Lauryl Lactate]
effect on the fingolimod flux [1]: enhancement effect

SMILES: CCCCCCCCc1ccc(CCC(N)(CO)CO)cc1 [fingolimod HCl, fingolimod hydrochloride]
peak to trough fluctuations, non-phosphorylated fingolimod [2]: ≤ 20%
peak to trough fluctuations, phosphorylated (active) form of fingolimod [2]: ≤ 45%

detection of fingolimod in the receptor solutions [3]: not detected
solubility of fingolimod in adhesive ([4]; Duro-Tak 87-9301 adhesive): less than 1%
solubility of fingolimod in the adhesive ([4]; PIB adhesive): less than 1%
solubility of fingolimod in the adhesive ([4]; acrylate polymer adhesive Duro-Tak 900A): less than 1%
SMILES: CCCCCCCCc1ccc(CCC(N)(CO)CO)cc1 [fingolimod, 2-amino-2-[2-(4-octylphenyl)ethyl]propane-1,3-diol]
